For 13 compounds, DC50 results are on record in patent US20240158418A1 (C4 Therapeutics, Inc., priority 2021, published 2024).

A value given as a limit tells only on which side of the number the result lay.

T1 sequence (P00533 25-1210 T790M/L858R): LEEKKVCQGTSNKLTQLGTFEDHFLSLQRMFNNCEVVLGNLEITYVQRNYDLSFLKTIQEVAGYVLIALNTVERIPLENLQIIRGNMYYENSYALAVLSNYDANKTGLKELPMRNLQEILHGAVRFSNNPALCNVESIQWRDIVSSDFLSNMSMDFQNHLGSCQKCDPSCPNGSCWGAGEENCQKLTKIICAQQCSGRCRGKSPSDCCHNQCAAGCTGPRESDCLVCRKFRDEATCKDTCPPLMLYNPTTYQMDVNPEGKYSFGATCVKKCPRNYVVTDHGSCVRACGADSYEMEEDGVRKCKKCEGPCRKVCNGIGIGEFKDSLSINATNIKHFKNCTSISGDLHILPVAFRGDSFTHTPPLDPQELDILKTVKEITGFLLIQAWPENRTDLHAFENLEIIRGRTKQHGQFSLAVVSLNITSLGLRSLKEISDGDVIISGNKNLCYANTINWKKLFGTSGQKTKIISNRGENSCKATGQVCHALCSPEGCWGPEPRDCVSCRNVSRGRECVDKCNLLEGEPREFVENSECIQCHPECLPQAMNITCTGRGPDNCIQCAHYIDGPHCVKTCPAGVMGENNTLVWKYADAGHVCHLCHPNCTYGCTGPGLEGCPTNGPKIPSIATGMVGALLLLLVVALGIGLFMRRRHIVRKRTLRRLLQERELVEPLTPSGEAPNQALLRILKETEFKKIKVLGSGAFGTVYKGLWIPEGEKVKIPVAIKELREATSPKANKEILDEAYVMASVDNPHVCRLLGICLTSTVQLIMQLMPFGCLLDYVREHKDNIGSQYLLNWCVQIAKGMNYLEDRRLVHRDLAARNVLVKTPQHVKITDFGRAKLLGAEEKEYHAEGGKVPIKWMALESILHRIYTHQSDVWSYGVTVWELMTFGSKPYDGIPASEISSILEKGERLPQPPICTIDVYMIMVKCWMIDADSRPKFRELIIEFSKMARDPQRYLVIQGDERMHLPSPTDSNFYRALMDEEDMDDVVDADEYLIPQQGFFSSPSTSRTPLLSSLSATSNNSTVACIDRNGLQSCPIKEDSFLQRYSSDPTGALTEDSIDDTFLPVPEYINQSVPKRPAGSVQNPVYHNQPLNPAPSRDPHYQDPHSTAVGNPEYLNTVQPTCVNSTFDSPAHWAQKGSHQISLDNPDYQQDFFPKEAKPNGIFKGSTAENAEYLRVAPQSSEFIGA

The first experiment addresses T1, EGFR L858R-T790M (Homo sapiens, UniProt P00533, L858R/T790M).
T1 construct: NCI-H1975 (harboring EGFR heterozygous L858R-T790M mutations); host or cells: NCI-H1975
Put plainly: EGFR degradation, Total EGFR (L858R-specific) HTRF, NCI-H1975. It counts as cell-based. Conditions: Table 9A; NCI-H1975 cells, 6 hours, Total EGFR HTRF; read-out: H1975 EGFR DC50. An excerpt:
NCI-H1975 (harboring EGFR heterozygous L858R-T790M mutations) and NCI-H3255 (harboring EGFR heterozygous L858R mutation) were purchased from ATCC and NCI, respectively. NCI-H1975+CS (harboring EGFR heterozygous L858R-T790M-C797S mutations) was generated using CRISPR technology to introduce the additional C797S mutation by Horizon Discovery. A431 (harboring EGFR wildtype) was purchased from ATCC. RPMI 1640 no-phenol red medium and fetal bovine serum (FBS) were purchased from Gibco (Grand Island, NY, USA). Cell culture flasks and 384-well microplates were acquired from VWR (Radnor, PA, USA). Phosphorylated (pY1068) EGFR and Total EGFR (using L858R-specific detection antibody and pan-EGFR antibody for EGFR mutant cell lines and EGFR wild-type cell lines, respectively) HTRF assay kits were purchased from Cisbio (Bedford, MA, USA).
Degradation of EGFR protein containing L858R mutation or wild-type was determined based on quantification of FRET signal using a Total EGFR (L858R-specific or pan-EGFR detecting) HTRF assay kit. Phospho-EGFR (pEGFR) inhibition was determined based on quantification of FRET signal using a pY1068 EGFR HTRF assay kit. In separate assay plates, test compounds were added to the 384-well plate from a top concentration of 10 μM with 11 points, half log titration in duplicates. For each assay, 12.5 uL of cells suspended in assay media (RPMI 1640 no-phenol red medium+10% FBS) at cell densities indicated for each cell line in Table 8 below were dispensed using a multi-channel pipette to 384-well low volume white HTRF microplates containing a duplicate concentration range of test compounds and DMSO controls. The plates were kept at 37° C. with 5% CO2 for 6 hours and then incubated with either phospho EGFR or Total EGFR HTRF detection antibodies according to the cell line and EGFR mutant being assayed. Cells treated in the absence of the test compound were the negative control. Positive control was set by wells containing all reagents but no cells. FRET signal was acquired on EnVision™ Multilabel Reader (PerkinElmer, Santa Clara, CA, USA). Compound concentration that achieves 50% degradation and inhibition was reported as DC50 and IC50, respectively.
For `O=C1CCC(Nc2ccc(C3CCN(CC(=O)N4CCN(c5ccc(-c6cc(F)c7cn(C(C(=O)Nc8nccs8)c8ncn9c8CCC9)nc7c6)cn5)CC4)CC3)cc2)C(=O)N1` (stereo not shown) [Compound 65, 2-(6,7-dihydro-5H-pyrrolo[1,2-c]imidazol-1-yl)-2-[6-[6-[4-[2-[4-[4-[(2,6-dioxo-3-piperidyl)amino]phenyl]-1-piperidyl]acetyl]piperazin-1-yl]-3-pyridyl]-4-fluoro-indazol-2-yl]-N-thiazol-2-yl-acetamide], the 50% degradation concentration (DC50) was less than 50 nM.

As for `Cn1nc(N2CCC(=O)NC2=O)c2ccc(C3CCN(CC(=O)N4CC5(C4)CN(c4ccc(-c6cc(F)c7c(c6)C(=O)N(C(C(=O)Nc6ccccn6)c6ncn8c6CCC8)C7)cc4)C5)CC3)cc21` (stereo not shown) [Compound 54, 2-(6,7-dihydro-5H-pyrrolo[1,2-c]imidazol-1-yl)-2-[6-[4-[2-[2-[4-[3-(2,4-dioxohexahydropyrimidin-1-yl)-1-methyl-indazol-6-yl]-1-piperidyl]acetyl]-2,6-diazaspiro[3.3]heptan-6-yl]phenyl]-4-fluoro-1-oxo-isoindolin-2-yl]-N-(2-pyridyl)acetamide], the DC50 was less than 50 nM. As to `O=C1CCC(Nc2ccc(N3CCC(O)(CC(=O)N4CCN(c5ccc(-c6cc(F)c7c(c6)C(=O)N(C(C(=O)Nc6nccs6)c6ncn8c6CCC8)C7)cc5)CC4)CC3)c(C(F)(F)F)c2)C(=O)N1` (stereo not shown) [Compound 18, 2-(6,7-dihydro-5H-pyrrolo[1,2-c]imidazol-1-yl)-2-(6-(4-(4-(2-(1-(4-((2,6-dioxopiperidin-3-yl)amino)-2-(trifluoromethyl)phenyl)-4-hydroxypiperidin-4-yl)acetyl)piperazin-1-yl)phenyl)-4-fluoro-1-oxoisoindolin-2-yl)-N-(thiazol-2-yl)acetamide], the DC50 was less than 50 nM.

Staying with this experiment, now noted: Table 9B; NCI-H1975 cells, 6 hours, Total EGFR HTRF; read-out: H1975 EGFR DC50.
In the case of `O=C1CCN(c2ccc(N3CCC(O)(CC(=O)N4CC5(C4)CN(c4ccc(-c6cc(F)c7c(c6)C(=O)N(C(C(=O)Nc6nccs6)c6ncn8c6CCC8)C7)cc4)C5)CC3)c(C(F)(F)F)c2)C(=O)N1` (stereo not shown) [Compound 168, 2-(6,7-dihydro-5H-pyrrolo[1,2-c]imidazol-1-yl)-2-[6-[4-[2-[2-[1-[4-(2,4-dioxohexahydropyrimidin-1-yl)-2-(trifluoromethyl)phenyl]-4-hydroxy-4-piperidyl]acetyl]-2,6-diazaspiro[3.3]heptan-6-yl]phenyl]-4-fluoro-1-oxo-isoindolin-2-yl]-N-thiazol-2-yl-acetamide], the DC50 was in the range of 50 to 150 nM. For `O=C1CCC(Nc2ccc(N3CCC(O)(CC(=O)N4CC5(C4)CN(c4ccc(-c6cc(F)c7c(c6)C(=O)N(C(C(=O)Nc6nccs6)c6ncn8c6CCC8)C7)cc4)C5)CC3)c(Cl)c2)C(=O)N1` (stereo not shown) [Compound 117, 2-[6-[4-[2-[2-[1-[2-chloro-4-[(2,6-dioxo-3-piperidyl)amino]phenyl]-4-hydroxy-4-piperidyl]acetyl]-2,6-diazaspiro[3.3]heptan-6-yl]phenyl]-4-fluoro-1-oxo-isoindolin-2-yl]-2-(6,7-dihydro-5H-pyrrolo[1,2-c]imidazol-1-yl)-N-thiazol-2-yl-acetamide], the DC50 is less than 50 nM. Consider `Cn1nc(N2CCC(=O)NC2=O)c2ccc([C@@H]3CCN(C(=O)CN4CC5(CCN(c6ccc(-c7cc(F)c8c(c7)C(=O)N(C(C(=O)Nc7nccs7)c7ncn9c7CCC9)C8)cc6)CC5)C4)CC3(F)F)cc21` (stereo partly drawn) [Compound 144, 2-(6,7-dihydro-5H-pyrrolo[1,2-c]imidazol-1-yl)-2-[6-[4-[2-[2-[(4S)-4-[3-(2,4-dioxohexahydropyrimidin-1-yl)-1-methyl-indazol-6-yl]-3,3-difluoro-1-piperidyl]-2-oxo-ethyl]-2,7-diazaspiro[3.5]nonan-7-yl]phenyl]-4-fluoro-1-oxo-isoindolin-2-yl]-N-thiazol-2-yl-acetamide], for which the 50% degradation concentration (DC50) is less than 50 nM. On the same count and under the same terms, next, `N#Cc1cc(N2CCC(=O)NC2=O)ccc1N1CCC(O)(CC(=O)N2CC3(C2)CN(c2ccc(-c4cc(F)c5c(c4)C(=O)N(C(C(=O)Nc4nccs4)c4ncn6c4CCC6)C5)cc2)C3)CC1` (stereo not shown) [Compound 171, 2-[6-[4-[2-[2-[1-[2-cyano-4-(2,4-dioxohexahydropyrimidin-1-yl)phenyl]-4-hydroxy-4-piperidyl]acetyl]-2,6-diazaspiro[3.3]heptan-6-yl]phenyl]-4-fluoro-1-oxo-isoindolin-2-yl]-2-(6,7-dihydro-5H-pyrrolo[1,2-c]imidazol-1-yl)-N-thiazol-2-yl-acetamide]: more than 150 nM. On to `O=C1CC[C@H](Nc2ccc(C3CCN(CC(=O)N4CC5(C4)CN(c4ccc(-c6cc(F)c7c(c6)C(=O)N(C(C(=O)Nc6nccs6)c6ncn8c6CCC8)C7)cn4)C5)CC3)c(F)c2)C(=O)N1` (stereo partly drawn) [Compound 95, 2-(6,7-dihydro-5H-pyrrolo[1,2-c]imidazol-1-yl)-2-(6-(6-(6-(2-(4-(4-(((S)-2,6-dioxopiperidin-3-yl)amino)-2-fluorophenyl)piperidin-1-yl)acetyl)-2,6-diazaspiro[3.3]heptan-2-yl)pyridin-3-yl)-4-fluoro-1-oxoisoindolin-2-yl)-N-(thiazol-2-yl)acetamide], for which the DC50 was less than 50 nM. In the case of `O=C1CC[C@H](Nc2ccc(N3CCC(O)(C(=O)N4CC5(C4)CN(c4ccc(-c6cc(F)c7c(c6)C(=O)N(C(C(=O)Nc6nccs6)c6ncn8c6CCC8)C7)cc4)C5)CC3)c(F)c2)C(=O)N1` (single isomer, unassigned; isomer 1) [Compound 146, 2-(6,7-dihydro-5H-pyrrolo[1,2-c]imidazol-1-yl)-2-[6-[4-[2-[1-[4-[[2,6-dioxo-3-piperidyl]amino]-2-fluoro-phenyl]-4-hydroxy-piperidine-4-carbonyl]-2,6-diazaspiro[3.3]heptan-6-yl]phenyl]-4-fluoro-1-oxo-isoindolin-2-yl]-N-thiazol-2-yl-acetamide, isomer 1], the DC50 was less than 50 nM.

On to `O=C1CC[C@H](Nc2ccc(C3CCN(C(=O)CC4CC5(C4)CN(c4ccc(-c6cc(F)c7c(c6)C(=O)N(C(C(=O)Nc6nccs6)c6ncn8c6CCC8)C7)cc4)C5)CC3)c(F)c2)C(=O)N1` (stereo partly drawn) [Compound 100, 2-(6,7-dihydro-5H-pyrrolo[1,2-c]imidazol-1-yl)-2-(6-(4-(6-(2-(4-(4-(((S)-2,6-dioxopiperidin-3-yl)amino)-2-fluorophenyl)piperidin-1-yl)-2-oxoethyl)-2-azaspiro[3.3]heptan-2-yl)phenyl)-4-fluoro-1-oxoisoindolin-2-yl)-N-(thiazol-2-yl)acetamide], for which the DC50 is less than 50 nM.

As for `Cn1nc(N2CCC(=O)NC2=O)c2ccc(C3CCN(C(=O)CC4CC5(C4)CN(c4ccc(-c6cc(F)c7c(c6)C(=O)N(C(C(=O)Nc6nccs6)c6ncn8c6CCC8)C7)cc4)C5)CC3(F)F)cc21` (stereo not shown) [Compound 102, 2-(6,7-dihydro-5H-pyrrolo[1,2-c]imidazol-1-yl)-2-(6-(4-(6-(2-(4-(3-(2,4-dioxotetrahydropyrimidin-1(2H)-yl)-1-methyl-1H-indazol-6-yl)-3,3-difluoropiperidin-1-yl)-2-oxoethyl)-2-azaspiro[3.3]heptan-2-yl)phenyl)-4-fluoro-1-oxoisoindolin-2-yl)-N-(thiazol-2-yl)acetamide], the DC50 is less than 50 nM. For the compound `O=C1CCC(Nc2ccc(N3CCCC(O)(CC(=O)N4CC5(C4)CN(c4ccc(-c6cc(F)c7c(c6)C(=O)N(C(C(=O)Nc6nccs6)c6ncn8c6CCC8)C7)cc4)C5)CC3)c(F)c2)C(=O)N1` (single isomer, unassigned; isomer a2) [Compound 165, 2-(6,7-dihydro-5H-pyrrolo[1,2-c]imidazol-1-yl)-2-[6-[4-[2-[2-[1-[4-[[2,6-dioxo-3-piperidyl]amino]-2-fluoro-phenyl]-4-hydroxy-azepan-4-yl]acetyl]-2,6-diazaspiro[3.3]heptan-6-yl]phenyl]-4-fluoro-1-oxo-isoindolin-2-yl]-N-thiazol-2-yl-acetamide, isomer A2], the DC50 was less than 50 nM.

On to `O=C1CC[C@H](Nc2ccc(N3CCC(O)(CC(=O)N4CCC5(CC4)CN(c4ccc(-c6cc(F)c7cn(C(C(=O)Nc8nccs8)c8ncn9c8CCC9)nc7c6)cc4)C5)CC3)c(F)c2)C(=O)N1` (stereo partly drawn) [Compound 79, 2-(6,7-dihydro-5H-pyrrolo[1,2-c]imidazol-1-yl)-2-(6-(4-(7-(2-(1-(4-(((S)-2,6-dioxopiperidin-3-yl)amino)-2-fluorophenyl)-4-hydroxypiperidin-4-yl)acetyl)-2,7-diazaspiro[3.5]nonan-2-yl)phenyl)-4-fluoro-2H-indazol-2-yl)-N-(thiazol-2-yl)acetamide], for which the DC50 was less than 50 nM.
